Data on seven compounds can be found in US4421747A, “Inflammation-preventing pharmaceutical composition of oral administration” (A. Nattermann & Cie. GmbH, priority 1981, dated 1983).

Where two headings read alike, the source gives them in different places.

In data set [1] the test system is bleeding stomach ulcer. As to the kind of experiment: Ulcer development (bleeding stomach ulcer provoked by oral application, mean ulcer factor). The format is in vivo, Wistar-rats. To be noted: for ED50: Rattus norvegicus, read-out: oral ED50. As for the experimental part:
The development of the ulcer was determined in accordance with
L. Mariani, "Eur. J. Toxicol.
R. Menguy & L. Desbaillets, "Proc. Soc. exp.
Ten male and ten female Wistar-rats (120 to 150 grams, in weight) which have not fed for 16 hours, were used for these tests. The bleeding stomach ulcer was provoked by oral application of the active substance. After 3.5 hours, the animals are killed and the stomach extracted, opened along the wide curvature and stretched onto a "Styropor" plate. The mean ulcer factor of the test and of the control group are determined. The variation is weighted in percentages as prevention of the ulcer formation.

The test system of data set [2] is rat paw oedema. As to the kind of experiment: rat-paw-oedema test (carragenin). It counts as in vivo. To be noted: for ED50: 3 h, read-out: oral ED50; for Prevention of Oedema: Table VII, 12 animals; for Effectiveness applied to Rat Paw Oedema: Table VIII, Dosage 10.0 mg/kg KGW, 12 Animals, prevention of oedema in percentages. As for the experimental part:
On one hind paw of each rat (weight 200 to 250 grams) an oedema was caused to develop by the "subplantane" application of carragenin (0.5% in a 0.9% NaCl solution) in the amount of 0.1 ml solution per paw.
After the application of the test substance, its volume not to exceed 10 ml per kg of body weight, the volume of the paw is determined in an overflow ("Ueberlauf"). After three hours the final value is ascertained. The test is carried out for every dosage by using 10 test and 10 control animals of one sex and repeated with the identical number of animals of the other sex. For the purpose of evaluation, the prevention of the oedema is expressed in percentages relative to the control group.

[3] abbreviates: reference substances, rat-paw-oedema test, oral.
The mark [4] stands for this setting: Table V, oral, Dosage One cc per mg/kg of Body Weight (KGW), by proportion Indometacine:Phospholipon 100.

Regarding `CC(=O)Oc1ccccc1C(=O)O` [Acetyl-Salicylic Acid, acetyl-salicylic acid], the “Ulcer Index” value was 1.20 ± 0.20 in data set [1] (Table I, oral, 200 mg/kg KGW, mixture molar ratio Acetyl-Salicylic Acid:Phospholipon 100 = 2:1, 3.5 h, n=10); 1.10 ± 0.50 in data set [1] (Table I, oral, 400 mg/kg KGW, mixture molar ratio Acetyl-Salicylic Acid:Phospholipon 100 = 2:1, 3.5 h, n=10); 1.20 ± 0.20 in data set [1] (Table I, oral, 800 mg/kg KGW, mixture molar ratio Acetyl-Salicylic Acid:Phospholipon 100 = 2:1, 3.5 h, n=10). Moreover, the “Incidence of Ulcers” value in data set [1] (Table I, oral, 200 mg/kg KGW, without resp. with p^+ (Phospholipon 100, 2:1)) stood at 70%; in data set [1] (Table I, oral, 400 mg/kg KGW, without resp. with p^+ (Phospholipon 100, 2:1)) it was 50%; in data set [1] (Table I, oral, 800 mg/kg KGW, without resp. with p^+ (Phospholipon 100, 2:1)), 80%.

On to `CC(=O)OCC(=O)[C@@]1(O)CC[C@H]2[C@@H]3CCC4=CC(=O)CC[C@]4(C)[C@H]3[C@@H](O)C[C@@]21C` [Hydrocortisoneacetate], for which the ED50 in data set [2] (setting [3]) turned out to be 19 mg/kg.

For the compound `CC(C)Cc1ccc(C(C)C(=O)O)cc1` (stereo not shown) [Ibuprofen, 2-(4-isobutylphenyl)-propinic acid], the “Incidence of Ulcers” value in data set [1] (Table VI, oral, 5 mg/kg KGW, one value printed for without and with p^+ (Phospholipon 100, 1:1)) is listed as 20%; in data set [1] (Table VI, oral, 10 mg/kg KGW, without resp. with p^+ (Phospholipon 100, 1:1)) it was 20%; in data set [1] (Table VI, oral, 20 mg/kg KGW, without resp. with p^+ (Phospholipon 100, 1:1)) it was 40%; in data set [1] (Table VI, oral, 30 mg/kg KGW, without resp. with p^+ (Phospholipon 100, 1:1)), 50%. Also, the “Ulcer Index” value in data set [1] (Table VI, rat, oral, 5 mg/kg KGW, mixture molar ratio Ibuprofen:Phospholipon 100 = 1:1, 3.5 h, n=10) was 0.20 ± 0.13; in data set [1] (Table VI, rat, oral, 10 mg/kg KGW, mixture molar ratio Ibuprofen:Phospholipon 100 = 1:1, 3.5 h, n=10), 0.30 ± 0.15; in data set [1] (Table VI, rat, oral, 20 mg/kg KGW, mixture molar ratio Ibuprofen:Phospholipon 100 = 1:1, 3.5 h, n=10), 0.50 ± 0.22; in data set [1] (Table VI, rat, oral, 30 mg/kg KGW, mixture molar ratio Ibuprofen:Phospholipon 100 = 1:1, 3.5 h, n=10), 0.71 ± 0.30.

Regarding `COc1ccc2c(c1)c(CC(=O)O)c(C)n2C(=O)c1ccc(Cl)cc1` [Indometacine], in data set [2] (Rattus norvegicus, po), the ED50 worked out at 7.24 mg/kg. In addition, the “Prevention of Oedema” value in data set [2] (Indometacine 3.16 mg/kg p.o., mixture with Phospholipon 100 7.1 mg/kg p.o.) was -47.3%; in data set [2] (Indometacine 10 mg/kg p.o., mixture with Phospholipon 100 22.4 mg/kg p.o.) it was -37.8%. In addition, the “Effectiveness applied to Rat Paw Oedema” value in data set [2] (3 hours elapsed after application) is on record as 32; in data set [2] (4 hours elapsed after application) it was 40; in data set [2] (5 hours elapsed after application) it was 28; in data set [2] (6 hours elapsed after application), 27. Further, the “Ulcer Index” value in data set [1] (Table III, oral, 5 mg/kg KGW, mixture molar ratio Indometacine:Phospholipon 100 = 2:1, 3.5 h, n=10) is listed as 1.20 ± 0.30; in data set [1] (Table III, oral, 10 mg/kg KGW, mixture molar ratio Indometacine:Phospholipon 100 = 2:1, 3.5 h, n=10) it was 1.90 ± 0.90; in data set [1] (Table III, oral, 20 mg/kg KGW, mixture molar ratio Indometacine:Phospholipon 100 = 2:1, 3.5 h, n=10), 1.50 ± 0.40; in data set [1] (Table IV, rat, oral, 5 mg/kg KGW, mixture molar ratio Indometacine:Phospholipon 45 = 1:2, 3.5 h, n=10) it was 2.10 ± 0.36; in data set [1] (Table IV, rat, oral, 10 mg/kg KGW, mixture molar ratio Indometacine:Phospholipon 45 = 1:2, 3.5 h, n=10), 2.20 ± 0.42; in data set [1] (Table IV, rat, oral, 20 mg/kg KGW, mixture molar ratio Indometacine:Phospholipon 45 = 1:2, 3.5 h, n=10) it was 2.30 ± 0.47. The “Ulcer Index” value in data set [1] (Table IV, rat, oral, 30 mg/kg KGW, mixture molar ratio Indometacine:Phospholipon 45 = 1:2, 3.5 h, n=10) was determined as 2.70 ± 0.30; in data set [1] (setting [4]), 2.60 ± 0.22. Moreover, the “Incidence of Ulcers” value in data set [1] (Table III, oral, 5 mg/kg KGW, without resp. with p^+ (Phospholipon 100, 2:1)) was 70%; in data set [1] (Table III, oral, 10 mg/kg KGW, without resp. with p^+ (Phospholipon 100, 2:1)) it was 90%; in data set [1] (Table III, oral, 20 mg/kg KGW, without resp. with p^+ (Phospholipon 100, 2:1)) it was 100%; in data set [1] (Table IV, oral, 5 mg/kg KGW, without resp. with p^+ (Phospholipon 45, 1:2)), 80%; in data set [1] (Table IV, oral, 10 mg/kg KGW, one value printed for without and with p^+ (Phospholipon 45, 1:2)), 90%; in data set [1] (Table IV, oral, 20 mg/kg KGW, one value printed for without and with p^+ (Phospholipon 45, 1:2)) it was 100%. Also, the “Incidence of Ulcers” value in data set [1] (Table IV, oral, 30 mg/kg KGW, without resp. with p^+ (Phospholipon 45, 1:2)) came out at 80%. Also, the “Variation of Mean Ulcer Factor: Indometacine With p^+ Versus Without p^+” value in data set [1] (setting [4]) is given as 0%.

As for `CCCCC1C(=O)N(c2ccccc2)N(c2ccccc2)C1=O` [Phenylbutazone, 4-butyl-1,2-diphenylpyrazolidine-3,5-dion], the median effective dose (ED50) in data set [2] (setting [3]) was found to be 100 mg/kg. Also, the “Ulcer Index” value in data set [1] (Table II, oral, 25 mg/kg KGW, mixture molar ratio Phenylbutazone:Phospholipon 100 = 2:1, 3.5 h, n=10) was determined as 0.70 ± 0.05; in data set [1] (Table II, oral, 50 mg/kg KGW, mixture molar ratio Phenylbutazone:Phospholipon 100 = 2:1, 3.5 h, n=10) it was 1.60 ± 0.42; in data set [1] (Table II, oral, 100 mg/kg KGW, mixture molar ratio Phenylbutazone:Phospholipon 100 = 2:1, 3.5 h, n=10), 1.80 ± 0.84; in data set [1] (Table II, oral, 200 mg/kg KGW, mixture molar ratio Phenylbutazone:Phospholipon 100 = 2:1, 3.5 h, n=10) it was 1.90 ± 0.66. Besides, the “Incidence of Ulcers” value in data set [1] (Table II, oral, 25 mg/kg KGW, without resp. with p^+ (Phospholipon 100, 2:1)) came out at 70%; in data set [1] (Table II, oral, 50 mg/kg KGW, without resp. with p^+ (Phospholipon 100, 2:1)) it was 60%; in data set [1] (Table II, oral, 100 mg/kg KGW, without resp. with p^+ (Phospholipon 100, 2:1)), 100%; in data set [1] (Table II, oral, 200 mg/kg KGW, one value printed for without and with p^+ (Phospholipon 100, 2:1)), 80%.

As to `CN1C2CCC1CC(OC(=O)C(CO)c1ccccc1)C2` (stereo not shown) [atropinesulphate], the ED50 in data set [1] (po) came out at 17.1 mg/kg.

Take `CN(C)CCCN1c2ccccc2Sc2ccc(Cl)cc21` [chloropromazine]: the ED50 in data set [1] (reference substances, ulcer test, oral) was determined as 105 mg/kg.
